For the experiment, the system named is 5α-reductase. Description: 5α-reductase activity of fibroblasts derived from human follicle dermal papillae ([C14]-testosterone metabolism to dihydrotestosterone). Type of experiment: cell-based. Here is the method: The study is performed on human cells derived from donor follicle dermal papillae. This model is attractive since dermal papillae have the 5α2 isoform as in prostate tissue. The cells are seeded in 24-well plates and cultured for 24 hours in DMEM culture medium supplemented with L-glutamine (2 mM), penicillin (50 U/ml), streptomycin (50 μg/ml) and fatal calf serum (10%) under standard culture conditions (37° C. and 5% CO2). The culture medium is then replaced by a DMEM analytical medium supplemented with L-glutamine (2 mM), penicillin (50 U/ml), streptomycin (50 μg/ml) and fatal calf serum (1%). This analytical medium may contain or may not contain (control conditions) the products to be tested and a compound used as reference, finasteride (10 μM), for 24 h of pre-incubation. The cells were then treated with an analytical medium containing [C^14]-testosterone and containing or not containing (control conditions) the test or reference products, and the cells were incubated for 24 h under these conditions. After incubation, supernatants were collected for testosterone metabolism analysis. All experiments were carried out three times. The steroid molecules were extracted from the supernatants with a chloroform/methanol mixture. The organic phase was collected and the different molecular species (testosterone metabolites) were separated by thin-layer chromatography using a solvent system containing dichloromethane, ethylacetate and methanol. An autoradiography was performed on the chromatography and the transformed testosterone was estimated by densitometric analysis.
Thus, the metabolism of testosterone to dihydrotestosterone reflects the 5α-reductase activity and is evaluated by the dihydrotestosterone/testosterone ratio.

For `CCCCCCCCCCCC(=O)OCC(O)CO` (stereo not drawn) [glyceryl laurate], where the note is “40 μg/ml”, the “inhibition of 5α-reductase” value is given as 19%. `CC(C)(C)NC(=O)[C@H]1CC[C@H]2[C@@H]3CC[C@H]4NC(=O)C=C[C@]4(C)[C@H]3CC[C@]12C` [Finasteride, finasteride]: the “5α-reductase inhibition, result in words” value is “strong inhibition”. Further, the “testosterone metabolism/dihydrotestosterone production (5α-reductase activity), change versus control = 100” value (10 μM, n = 3) is given as −77%.

The record behind these values is patent publication US10925915B2, “Use of a Copaifera extract to combat alopecia and seborrhea” (PIERRE FABRE DERMO-COSMETIQUE, priority 2017, dated 2021).
